Measurements taken from patent publication US10239882B2, “Substituted 5-methyl-[1,2,4]triazolo[1,5-a]pyrimidin-2-amine compounds as PDE2 inhibitors” (DART NEUROSCIENCE (CAYMAN) LTD., priority 2014, dated 2019).

Molecular target: FLAG-tagged PDE2A1 (amino acids 2-941) (Homo sapiens (Human), UniProt O00408)
Assay: IMAP TR-FRET PDE2A enzymatic assay
Assay type: biochemical
Conditions: 200 nM FAM-cAMP substrate, 11-point half-log dose-response
Description: An IMAP TR-FRET-based phosphodiesterase assay was developed using the PDE2A isoform. IMAP technology is based on high-affinity binding of phosphate by immobilized metal (MIII) coordination complexes on nanoparticles. The IMAP “binding reagent” recognizes phosphate groups on AMP or GMP generated from cAMP or cGMP in a PDE reaction. Cyclic nucleotides that carry a phosphodiester bond and not a free phosphate are not recognized by the binding reagent. The time resolved fluorescence resonance energy transfer (TR-FRET) is afforded by a Terbium (Tb)-Donor pre-bound to the nanoparticles. FRET occurs when the fluorescent-labeled AMP or GMP product of a PDE reaction binds and comes into close proximity to the Tb-Donor complex. Due to the long lifetime of Tb fluorescence, detection can be run in time-resolved mode to reduce or eliminate interference from auto-fluorescent compounds.
The IMAP TR-FRET PDE2A assay was performed in 1536-well white plates. A total of 250 pg per well of FLAG-tagged PDE2A1 (amino acids 2-941) was dispensed in 2.5 μL IMAP assay buffer consisting of 10 mM Tris pH 7.2, 10 mM MgCl2, 1 mM DTT, and 0.1% fatty acid free BSA. 30 nL of compound was then added from 1 mM stocks in DMSO using a Kalypsys Pintool. Plates were incubated for 5 min at room temperature before dispensing 1.5 μL of 533 nM FAM-cAMP substrate for a final concentration of 200 nM. Following a brief centrifugation, plates were incubated for 30 min at room temperature. The assay was terminated by adding 5 μL IMAP binding reagent Tb complex to each well which was prepared according to manufacturer's recommendations (Molecular Devices). Plates were incubated an additional 90 minutes at room temperature and read on a Viewlux plate reader. All compounds were solvated at a concentration of 10 mM in DMSO and tested in 11-point half-log dose-response. Curve fitting and IC50 values were determined using a standard four parameter fit.

Chain of FLAG-tagged PDE2A1 (amino acids 2-941) (O00408 2-941): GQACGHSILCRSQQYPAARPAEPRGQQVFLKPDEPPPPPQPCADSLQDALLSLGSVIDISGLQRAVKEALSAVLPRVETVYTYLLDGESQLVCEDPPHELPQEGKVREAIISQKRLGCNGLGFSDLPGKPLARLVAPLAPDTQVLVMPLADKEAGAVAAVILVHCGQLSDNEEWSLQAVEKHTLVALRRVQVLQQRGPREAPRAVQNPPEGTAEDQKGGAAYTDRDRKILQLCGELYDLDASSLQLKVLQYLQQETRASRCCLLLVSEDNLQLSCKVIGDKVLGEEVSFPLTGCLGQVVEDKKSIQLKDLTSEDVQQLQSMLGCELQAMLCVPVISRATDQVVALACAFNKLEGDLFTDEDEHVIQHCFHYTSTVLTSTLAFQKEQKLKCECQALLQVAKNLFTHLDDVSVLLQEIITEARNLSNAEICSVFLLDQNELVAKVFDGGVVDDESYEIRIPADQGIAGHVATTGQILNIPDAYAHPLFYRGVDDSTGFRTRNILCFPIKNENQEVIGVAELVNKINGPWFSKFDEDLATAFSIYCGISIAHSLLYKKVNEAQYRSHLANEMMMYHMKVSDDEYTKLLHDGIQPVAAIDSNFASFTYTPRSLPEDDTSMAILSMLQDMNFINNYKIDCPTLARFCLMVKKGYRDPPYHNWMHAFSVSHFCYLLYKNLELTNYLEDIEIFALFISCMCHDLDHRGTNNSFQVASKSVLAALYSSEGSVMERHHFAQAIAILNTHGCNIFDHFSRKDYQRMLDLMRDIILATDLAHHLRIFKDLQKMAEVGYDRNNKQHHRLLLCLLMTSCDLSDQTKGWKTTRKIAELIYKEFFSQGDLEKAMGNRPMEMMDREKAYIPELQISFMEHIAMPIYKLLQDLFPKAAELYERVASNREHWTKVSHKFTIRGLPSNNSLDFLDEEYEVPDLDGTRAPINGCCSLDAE

Compound	PDE2 (PIC50)
COc1ccc(CNc2nc3nc(C)cc(C4CCOCC4)n3n2)cc1C(F)F [Example 25, N-{[3-(Difluoromethyl)-4-methoxyphenyl]methyl}-5-methyl-7-(oxan-4-yl)-[1,2,4]triazolo[1,5-a]pyrimidin-2-amine]	>7
Cc1cc(C2CCOCC2)n2nc(NCc3ccc(F)c(Cl)c3F)nc2n1 [Example 78, N-[(3-Chloro-2,4-difluorophenyl)methyl]-5-methyl-7-(oxan-4-yl)-[1,2,4]triazolo[1,5-a]pyrimidin-2-amine]	>7
Cc1cc(C2CCOCC2)n2nc(NCc3cc(Cl)c(F)cc3F)nc2n1 [Example 80, N-[(5-Chloro-2,4-difluorophenyl)methyl]-5-methyl-7-(oxan-4-yl)-[1,2,4]triazolo[1,5-a]pyrimidin-2-amine]	>7
COc1ccc(CNc2nc3nc(CF)cc(C4CCOCC4)n3n2)cc1 [Example 30, 5-(Fluoromethyl)-N-[(4-methoxyphenyl)methyl]-7-(oxan-4-yl)-[1,2,4]triazolo[1,5-a]pyrimidin-2-amine]	>7
Cc1cc(C2CCOCC2)n2nc(NCc3cc(-c4ccccc4)nn3C)nc2n1 [Example 82, 5-Methyl-N-[(1-methyl-3-phenyl-1H-pyrazol-5-yl)methyl]-7-(oxan-4-yl)-[1,2,4]triazolo[1,5-a]pyrimidin-2-amine]	>7
Cc1cc(C2CCOCC2)n2nc(NCc3cccc(Br)c3)nc2n1 [Example 39, N-[(3-Bromophenyl)methyl]-5-methyl-7-(oxan-4-yl)-[1,2,4]triazolo[1,5-a]pyrimidin-2-amine]	>7
Cc1cc(C2CCOCC2)n2nc(NCc3cccc(C(F)(F)F)c3)nc2n1 [Example 41, 5-Methyl-7-(oxan-4-yl)-N-{[3-(trifluoromethyl)phenyl]methyl}-[1,2,4]triazolo[1,5-a]pyrimidine-2-amine]	>7
Cc1cc(C2(C)CCOCC2)n2nc(NCc3cn(-c4ccccc4)nc3C)nc2n1 [Example 61, 5-Methyl-N-[(3-methyl-1-phenyl-1H-pyrazol-4-yl)methyl]-7-(4-methyloxan-4-yl)-[1,2,4]triazolo[1,5-a]pyrimidin-2-amine]	>7
Cc1cc(C2CCOCC2)n2nc(NCc3cc(Cl)ccc3F)nc2n1 [Example 13, N-(5-Chloro-2-fluorobenzyl)-5-methyl-7-(tetrahydro-2H-pyran-4-yl)-[1,2,4]triazolo[1,5-a]pyrimidin-2-amine]	>7
Cc1cc(C2(C)CCOCC2)n2nc(NCc3cnn(-c4ccccc4)c3)nc2n1 [Example 62, 5-Methyl-7-(4-methyloxan-4-yl)-N-[(1-phenyl-1H-pyrazol-4-yl)methyl]-[1,2,4]triazolo[1,5-a]pyrimidin-2-amine]	>7
COc1ccc(CNc2nc3nc(C)cc(C4CCN(C(C)=O)CC4)n3n2)cc1C(F)F [Example 19, 1-{4-[2-({[3-(Difluoromethyl)-4-methoxyphenyl]methyl}amino)-5-methyl-[1,2,4]triazolo[1,5-a]pyrimidin-7-yl]piperidin-1-yl}ethan-1-one]	>7
COc1ccc(CNc2nc3nc(C)cc(C4CCCOC4)n3n2)cc1 (stereo not drawn) [Example 38, N-[(4-Methoxyphenyl)methyl]-5-methyl-7-(oxan-3-yl)-[1,2,4]triazolo[1,5-a]pyrimidin-2-amine]	>7
Cc1cncc(CNc2nc3nc(C)cc(C4CCOCC4)n3n2)c1 [Example 54, 5-Methyl-N-[(5-methylpyridin-3-yl)methyl]-7-(oxan-4-yl)-[1,2,4]triazolo[1,5-a]pyrimidin-2-amine]	>7
COc1cccc(-n2cc(CNc3nc4nc(C)cc(C5CCOCC5)n4n3)cn2)c1 [Example 31, N-{[1-(3-Methoxyphenyl)-1H-pyrazol-4-yl]methyl}-5-methyl-7-(oxan-4-yl)-[1,2,4]triazolo[1,5-a]pyrimidin-2-amine]	>7
Cc1cc(C2CCOCC2)n2nc(NCc3ccnc(C(F)(F)F)c3)nc2n1 [Example 59, 5-Methyl-7-(oxan-4-yl)-N-{[2-(trifluoromethyl)pyridin-4-yl]methyl}-[1,2,4]triazolo[1,5-a]pyrimidin-2-amine]	>7
CC(=O)N1CCC(c2cc(C)nc3nc(NCc4cccc(C(F)F)c4)nn23)CC1 [Example 20, 1-{4-[2-({[3-(Difluoromethyl)phenyl]methyl}amino)-5-methyl-[1,2,4]triazolo[1,5-a]pyrimidin-7-yl]piperidin-1-yl}ethan-1-one]	>7

Same assay, conditions: 200 nM FAM-cAMP substrate, 11-point half-log dose-response, read-out: PDE2 (PIC50)

Compound	IC50
Cc1cc(C2CCOCC2)n2nc(NCc3cccc(F)c3)nc2n1 [Example 58, N-[(3-Fluorophenyl)methyl]-5-methyl-7-(oxan-4-yl)-[1,2,4]triazolo[1,5-a]pyrimidin-2-amine]	0.1 to 1 µM
Cc1cc(C2CCOCC2)n2nc(NCc3ccccc3C)nc2n1 [Example 47, 5-Methyl-N-[(2-methylphenyl)methyl]-7-(oxan-4-yl)-[1,2,4]triazolo[1,5-a]pyrimidin-2-amine]	0.1 to 1 µM
Cc1cc(C(C)C)n2nc(NCc3cccc(Cl)c3)nc2n1 [Example 7, N-(3-Chlorobenzyl)-7-isopropyl-5-methyl-[1,2,4]triazolo[1,5-a]pyrimidin-2-amine]	1 to 10 µM
Cc1cc(C2CC2)n2nc(NCc3ccc4c(c3)OCC4)nc2n1 [Example 3, 7-Cyclopropyl-N-((2,3-dihydrobenzofuran-6-yl)methyl)-5-methyl-[1,2,4]triazolo[1,5-a]pyrimidin-2-amine]	1 to 10 µM
Cc1cc(C2CC2)n2nc(NCc3ccc4c(c3)CCO4)nc2n1 [Example 2, 7-Cyclopropyl-N-((2,3-dihydrobenzofuran-5-yl)methyl)-5-methyl-[1,2,4]triazolo[1,5-a]pyrimidin-2-amine]	1 to 10 µM
Cc1cc(CNc2nc3nc(C)cc(C4(C)CCOCC4)n3n2)ccn1 [Example 43, 5-Methyl-7-(4-methyloxan-4-yl)-N-[(2-methylpyridin-4-yl)methyl]-[1,2,4]triazolo[1,5-a]pyrimidin-2-amine]	0.1 to 1 µM
Cc1cc(C2CCOCC2)n2nc(NCc3ccc(F)cc3F)nc2n1 [Example 68, N-[(2,4-Difluorophenyl)methyl]-5-methyl-7-(oxan-4-yl)-[1,2,4]triazolo[1,5-a]pyrimidin-2-amine]	0.1 to 1 µM
COc1cccc(CNc2nc3nc(C)cc(C4CCOCC4)n3n2)c1 [Example 24, N-[(3-Methoxyphenyl)methyl]-5-methyl-7-(oxan-4-yl)-[1,2,4]triazolo[1,5-a]pyrimidin-2-amine]	0.1 to 1 µM
Cc1cc(C2CCOCC2)n2nc(NCc3cccc(C#N)c3)nc2n1 [Example 86, 3-({[5-Methyl-7-(oxan-4-yl)-[1,2,4]triazolo[1,5-a]pyrimidin-2-yl]amino}methyl)benzonitrile]	0.1 to 1 µM
COc1ccc(CNc2nc3nc(C)cc(C4(C)CCOCC4)n3n2)cc1 [Example 34, N-[(4-Methoxyphenyl)methyl]-5-methyl-7-(4-methyloxan-4-yl)-[1,2,4]triazolo[1,5-a]pyrimidin-2-amine]	0.1 to 1 µM
Cc1cc(C2CCOCC2)n2nc(NCc3ccc(F)cc3)nc2n1 [Example 57, N-[(4-Fluorophenyl)methyl]-5-methyl-7-(oxan-4-yl)-[1,2,4]triazolo[1,5-a]pyrimidin-2-amine]	0.1 to 1 µM
COc1ccc(CNc2nc3nc(C)cc(C4CCOCC4)n3n2)cc1 [Example 1, N-(4-Methoxybenzyl)-5-methyl-7-(tetrahydro-2H-pyran-4-yl)-[1,2,4]triazolo[1,5-a]pyrimidin-2-amine]	0.1 to 1 µM
Cc1cc(C2CCOCC2)n2nc(NCc3c(F)cccc3F)nc2n1 [Example 51, N-[(2,6-Difluorophenyl)methyl]-5-methyl-7-(oxan-4-yl)-[1,2,4]triazolo[1,5-a]pyrimidin-2-amine]	0.1 to 1 µM
COc1ccc(CNc2nc3nc(C)cc(C4CCOC4)n3n2)cc1 (stereo not drawn) [Example 44, N-[(4-Methoxyphenyl)methyl]-5-methyl-7-(oxolan-3-yl)-[1,2,4]triazolo[1,5-a]pyrimidin-2-amine]	0.1 to 1 µM
Cc1cc(C2CCC2)n2nc(NCc3cn(-c4ccccc4)nc3C)nc2n1 [Example 71, 7-Cyclobutyl-5-methyl-N-[(3-methyl-1-phenyl-1H-pyrazol-4-yl)methyl]-[1,2,4]triazolo[1,5-a]pyrimidin-2-amine]	0.1 to 1 µM
Cc1cc(C2CCOCC2)n2nc(NCc3ccc4c(c3)OC(F)(F)O4)nc2n1 [Example 45, N-[(2,2-Difluoro-2H-1,3-benzodioxol-5-yl)methyl]-5-methyl-7-(oxan-4-yl)-[1,2,4]triazolo[1,5-a]pyrimidin-2-amine]	0.1 to 1 µM
Cc1cc(C2CCOCC2)n2nc(NCc3cn(CC(F)F)nc3C)nc2n1 [Example 65, N-{[1-(2,2-Difluoroethyl)-3-methyl-1H-pyrazol-4-yl]methyl}-5-methyl-7-(oxan-4-yl)-[1,2,4]triazolo[1,5-a]pyrimidin-2-amine]	0.1 to 1 µM
